The record followed here is US8828995B2, “Branched oxathiazine derivatives, method for the production thereof, use thereof as medicine and drug containing said derivatives and use thereof” (Sanofi, priority 2011, dated 2014).

The assay deals with human 11β-HSD1 microsome fraction (Homo sapiens, UniProt P28845). Description: Enzymatic 11beta-HSD1 test (SPA-based detection). Particulars: IC50 (nM), Biological activity, [1,2-3H]-cortisone, 0.25 mM NADPH, 37° C. for 1 hour.

By IC50 is commonly meant the midpoint of a concentration-inhibition curve.

Molecules are shown by their SMILES.

human 11β-HSD1 microsome fraction, sequence (P28845 whole entry): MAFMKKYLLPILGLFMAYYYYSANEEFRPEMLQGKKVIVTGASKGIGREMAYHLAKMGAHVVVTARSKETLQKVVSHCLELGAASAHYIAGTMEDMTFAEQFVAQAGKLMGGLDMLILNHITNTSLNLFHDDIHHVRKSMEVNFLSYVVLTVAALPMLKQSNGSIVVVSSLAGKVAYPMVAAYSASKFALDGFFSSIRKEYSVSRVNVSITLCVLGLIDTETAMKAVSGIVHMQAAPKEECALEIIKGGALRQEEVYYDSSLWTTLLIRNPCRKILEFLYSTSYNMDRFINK
Procedure: Enzymatic 11beta-HSD1 test:
Protein and radioactive substrate were dispensed with a Biomek FX unit (Beckman Coulter) for handling liquids. The test compounds were added with a Cybi-Well equipped with a 90 nl pin tool (CyBio).

In turn, `O=S1(=O)N=C(N[C@@H](CCO)c2ccc(F)cc2)OC2CCCCC21` (single isomer, unassigned) [Example 19] registered an IC50 of 11 nM.

`O=S1(=O)N=C(N[C@@H](CCO)c2ccc(F)cc2)OC2CCCCC21` (single isomer, unassigned) [Example 20]: the IC50 was 13 nM.

`O=S1(=O)N=C(N[C@@H](CCO)c2ccccc2)OC2CCOCC21` (single isomer, unassigned) [Example 26] yielded an IC50 of 742 nM.

Take `O=S1(=O)N=C(N[C@@H](CCO)c2ccccc2)OC2CCOCC21` (single isomer, unassigned) [Example 27]: the IC50 stood at 62 nM.

`CC12CCCCC1(C)S(=O)(=O)N=C(N[C@@H](CCO)c1ccccc1)O2` (single isomer, unassigned) [Example 31] came in with an IC50 of 34 nM.

With `CC12CCCCC1(C)S(=O)(=O)N=C(N[C@@H](CCO)c1ccccc1)O2` (single isomer, unassigned) [Example 32], the IC50 is 4 nM.

Turning to `CC12CCCCC1(C)S(=O)(=O)N=C(N[C@@H](CCO)c1cccnc1)O2` (single isomer, unassigned) [Example 33], the IC50 amounted to 9 nM.

Regarding `CC12CCCCC1(C)S(=O)(=O)N=C(N[C@@H](CCO)c1cccnc1)O2` (single isomer, unassigned) [Example 34], half-maximal inhibition (IC50) required 353 nM.

In the case of `O=S1(=O)N=C(N[C@@H](CO)Cc2ccccc2)OC2CCCCC21` (stereo partly drawn) [Example 2, (R)-2-(−1,1-Dioxo-4a,5,6,7,8,8a-hexahydro-1H-1lambda6-benzo[1,4,3]oxathiazin-3-ylamino)-3-phenyl-propan-1-ol], the IC50 amounted to 575 nM.

Compound `O=S1(=O)N=C(N[C@H](CO)Cc2ccccc2)OC2CCCCC21` (stereo partly drawn) [Example 3, (S)-2-(−1,1-Dioxo-4a,5,6,7,8,8a-hexahydro-1H-1lambda6-benzo[1,4,3]oxathiazin-3-ylamino)-3-phenyl-propan-1-ol] showed an IC50 of 24 nM.

Consider `O=S1(=O)N=C(N[C@@H](CCO)c2ccc(F)cc2)OC2CCCCC21` (stereo partly drawn) [Example 9, (S)-3-(−1,1-Dioxo-4a,5,6,7,8,8a-hexahydro-1H-1lambda6-benzo[1,4,3]oxathiazin-3-ylamino)-3-(4-fluoro-phenyl)-propan-1-ol], for which the IC50 was found to be 5 nM.

Take `O=S1(=O)N=C(N[C@@H](CCO)c2cccc(F)c2)OC2CCCCC21` (stereo partly drawn) [Example 10, (S)-3-(−1,1-Dioxo-4a,5,6,7,8,8a-hexahydro-1H-1lambda6-benzo[1,4,3]oxathiazin-3-ylamino)-3-(3-fluoro-phenyl)-propan-1-ol]: half-maximal inhibition (IC50) required 104 nM.

`O=S1(=O)N=C(N[C@@H](CCO)c2cccc(F)c2)OC2CCCCC21` (stereo partly drawn) [Example 17, (S)-3-(−1,1-Dioxo-4a,5,6,7,8,8a-hexahydro-1H-1lambda6-benzo[1,4,3]oxathiazin-3-ylamino)-3-(3-fluoro-phenyl)-propan-1-ol] gave an IC50 of 27 nM.

Regarding `O=S1(=O)N=C(N[C@@H](CCO)c2ccc(F)cc2)OC2CCCCC21` (stereo partly drawn) [Example 18, (S)-3-(−1,1-Dioxo-4a,5,6,7,8,8a-hexahydro-1H-1lambda6-benzo[1,4,3]oxathiazin-3-ylamino)-3-(4-fluoro-phenyl)-propan-1-ol], the IC50 came out at 4 nM.

In turn, `O=S1(=O)N=C(N[C@@H](CCO)c2cccnc2)O[C@H]2CCCC[C@H]21` [Example 25, (S)-3-((4aS,8aR)-1,1-Dioxo-4a,5,6,7,8,8a-hexahydro-1H-1lambda6-benzo[1,4,3]oxathiazin-3-ylamino)-3-pyridin-3-yl-propan-1-ol] gave an IC50 of 25 nM.

`O=S1(=O)N=C(N[C@@H](CCO)c2ccccc2)OC2CCC(F)(F)CC21` (stereo partly drawn) [Example 28, (S)-3-(7,7-Difluoro-1,1-dioxo-4a,5,6,7,8,8a-hexahydro-1H-1lambda6-benzo[1,4,3]oxathiazin-3-ylamino)-3-phenyl-propan-1-ol]: the IC50 amounted to 445 nM.

`NS(=O)(=O)CC(NC1=NS(=O)(=O)[C@@H]2CCCC[C@@H]2O1)c1ccccc1` (stereo partly drawn) [Example 29, 2-((4aS,8aR)-1,1-Dioxo-4a,5,6,7,8,8a-hexahydro-1H-1lambda6-benzo[1,4,3]oxathiazin-3-ylamino)-2-phenyl-ethanesulfonamide]: 15 nM corresponded to half-maximal inhibition (IC50).

In the case of `NS(=O)(=O)CC(NC1=NS(=O)(=O)[C@@H]2CCCC[C@@H]2O1)c1ccccc1` (stereo partly drawn) [Example 30, 2-((4aS,8aR)-1,1-Dioxo-4a,5,6,7,8,8a-hexahydro-1H-1lambda6-benzo[1,4,3]oxathiazin-3-ylamino)-2-phenyl-ethanesulfonamide], the midpoint of inhibition, the IC50, lay at 11 nM.
